Data from US6338963B1, “Use of carbon monoxide dependent guanylyl cyclase modifiers to stimulate neuritogenesis” (NeoTherapeutics, Inc., priority 1994, dated 2002).

Key:
[1] = test system: mice; assay: Exploratory activity in novel large cage; assay type: in vivo; details: 30 minutes
Experimental: To measure exploratory behavior, subjects received saline or AIT-082 administration, were placed in a novel large cage (25×48×16 cm, W×L×H), and movement was measured at one-minute intervals for 30 minutes. The large cage (San Diego Instruments, San Diego, Calif.) was equipped with vertical detectors and rearing movements were also recorded.

[2] = test system: BDNF mRNA; assay: RT-PCR of growth factor mRNA after T8 spinal cord hemisection: BDNF; assay type: in vivo, Wistar rats
[3] = test system: mice; assay: Motor coordination, accelerating Roto-Rod treadmill; assay type: in vivo; details: AIT dose 0.005 mg/kg
Experimental: Motor coordination was measured using an accelerating Roto-Rod treadmill for mice (Ugo Basile Co.). At various times after treatment with saline or drug, mice were placed on the Roto-Rod, which accelerates to maximum speed over a 5 minute period. The time in seconds at which the subject falls off was recorded in Table B directly below. Each animal was tested 3 times and the mean time was recorded.

[4] = test system: cultured neurons from rat cerebral cortex; assay: NMDA-induced toxicity in cultured rat cortical neurons, astrocyte conditioned medium; assay type: cell-based; details: CM from astrocytes treated 6 hours with AIT-082
Experimental: In these experiments, cultured neurons were prepared from rat cerebral cortex. In these cultures the NMDA pulse (100 μM for 10 min) provoked about 80% neuronal death (measured by Trypan blue cell staining or LDH activity). Separately, cultured astrocytes were treated for 6 hours with AIT-082. Then, the medium containing the drug was replaced with fresh medium without the drug and the astrocyte cultures were maintained in this medium for the next 24 hours. This medium represented the CM and was added to neurons soon after the toxic pulse with NMDA. The addition of CM partly counteracted the toxic effects caused by NMDA, reducing the neuronal damage by about 50%. If the medium was boiled for 20 min at 100° C. prior to addition to NMDA-damaged neurons, it completely lost the protective activity. […] To verify whether the neuroprotection caused by AIT-082 was ascribable to the production of TGFβ2 or NGF, antibodies to TGFβ2 or to NGF (100 ng/ml) were added together with CM.
Conversely, when DPCPX (100 nm) was added to astrocyte cultures together with AIT-082, the neuroprotective effect of the resulting CM deriving from the culture of the astrocytes with AIT-082 was reduced by only 20%, as compared to the neuroprotective effect of CM derived from astrocytes exposed to AIT-082 alone (assumed as equal to 100%).

[5] = Plasma levels of AIT-082 in mice (HPLC); assay type: in vivo; details: 30 mg/kg i.p., C57BL/6 mice, estimated
Experimental: Adult C57BL/6 mice were administered 30 mg/kg of AIT-082 in saline i.p. The animals were sacrificed by decapitation at […] after administration of AIT-082. Blood was collected in heparinized tubes, mixed and centrifuged at 2000 rpm for 15 minutes. The plasma supernatant was removed and stored at −70° C. until analysis. A high pressure liquid chromatography system was developed for the analytical measurement of AIT-082 in plasma and brain tissue. The assay developed was selective for AIT-082 in the presence of a number of closely related purine molecules. The sensitivity of the method was 0.1 microgram of AIT-082 per ml of plasma and 0.1 microgram of AIT-082 per milligram of brain tissue (wet weight).
The results of these determinations graphically represented in FIG. 1 where plasma levels of AIT-082 are provided at 5, 10, 15, 20, 30, 60, 90, and 120 minutes after administration of 30 mg/kg i.p. to C57BL/6 mice. From the data, it was estimated that the blood level of AIT-082 reached its peak at approximately 15 minutes.

[6] = test system: C57BL/6 mice; assay: Win-shift duration of memory trace, C57BL/6 mice; assay type: in vivo; details: for Correct (Mean score ± S.E.) / No. above chance/Total #: AIT-082 30 mg/kg
Experimental: To determine the duration of the memory trace, subjects were administered drug or saline and 30 minutes (PHY) or 1 hour (AIT-082 or THA) later they were given a single reference run with the milk reward in both goal boxes. After the indicated inter-trial delay, subjects were returned to the start box and given the first test trial with the milk reward only in the goal box opposite to the one entered on the previous correct trial. The subjects were given 10 trials with the reward alternating only after correct responses.
Previous work has established that normal adult Swiss Webster mice have a memory trace duration of 60 seconds in the win-shift paradigm which may be increased by the administration of AIT-082.

[7] = test system: mice; assay: Hot plate nocioception; assay type: in vivo; details: hot plate 55° C.
Experimental: Mice were placed on an electric hot plate (Ominitech) at 55° C. and the latency time until the subject licked his hind paw was measured. If there was no response by 45 seconds, the trial was terminated. By this test there was no effect of AIT-082 on nocioception.

[8] = test system: S100β protein; assay: Western blot of astrocyte cytosolic proteins: S100β; assay type: cell-based, rat; details: 100 μM AIT-082
[9] = test system: neocortical astrocytes; assay: NGF-like immunoreactivity in astrocyte culture medium (ELISA); assay type: cell-based, mouse; details: astrocytes incubated with different concentrations
Experimental: Astrocytes appear to proliferate in response to extracellular guanosine or guanosine triphosphate (GTP). GTP or guanosine may also stimulate the release of trophic factors from cultures of neocortical astrocytes from neonatal mouse brains. Astrocytes were incubated with different concentrations of guanosine or GTP respectively. Neurotrophin imunoreactivity in the culture medium from treated cells was then measured by ELISA.
Briefly, 96 well Falcon plates (Fisher) were coated with […] of sheep mono-specific anti-NGF IgG (affinity column purified) contained in 0.1M sodium carbonate buffer pH 9.6. After an overnight incubation at 4° C. blocking solution (PBS with 10% goat serum) was added to remove excess antibody. After a four hour incubation at room temperature the plates were washed three times with PBS containing 0.05% Tween 20. The conditioned media and standard 2.5S HPLC purified NGF were added and incubated overnight. The next day plates were washed 3 times with PBS-0.05% Tween 20. The secondary antibody, rabbit mono-specific anti-NGF IgG conjugated with β-galactosidase (Pierce-SPDP method) (1:500 dilution) was added. The plates were incubated overnight at 4° C. The next day the plates were washed 3 times with PBS-0.05% Tween 20. […]
The ELISA assay detected neurotrophins NGF and NT-3 with ahnost equal affinity and BDNF with 100 times less affinity. […]

SMILES	exploratory activity [1]	BDNF mRNA level ([2]; at the level of the lesion)	BDNF mRNA level ([2]; caudal to lesion, 7 days)	BDNF mRNA level ([2]; rostral to lesion, 3 days, 20 mg/kg day in drinking water, sham-operated over lesion animals)	BDNF mRNA level ([2]; rostral to lesion, 7 days, lesioned treated vs lesioned not treated)	Roto-Rod performance, Time [3]	reduction of neuronal damage caused by NMDA [4]	time at which blood level of AIT-082 reached its peak [5]	duration of the memory trace ([6]; AIT-082 30 mg/kg i.p., untreated 120 seconds)	Correct (Mean score ± S.E.) ([6]; inter-trial interval 180 sec)	No. above chance/Total # ([6]; inter-trial interval 180 sec)	Correct (Mean score ± S.E.) ([6]; inter-trial interval 210 sec)	No. above chance/Total # ([6]; inter-trial interval 210 sec)	Correct (Mean score ± S.E.) ([6]; inter-trial interval 240 sec)	No. above chance/Total # ([6]; inter-trial interval 240 sec)	Correct (Mean score ± S.E.) ([6]; inter-trial interval 270 sec)	No. above chance/Total # ([6]; inter-trial interval 270 sec)	effect on nocioception (hot plate latency) [7]	ex novo synthesis of S100β protein [8]	NGF-like immunoreactivity in the culture medium [9]
O=C(CCn1cnc2c(=O)[nH]cnc21)Nc1ccc(C(=O)O)cc1 [AIT-082, N-4-carboxyphenyl-3-(6-oxohydropurin-9-yl)propanamide]	No effects were noted	no significant differences	no significant effects	significantly increased	significantly higher	162 ± 93 s	about 50%	approximately 15 minutes	over 210 seconds	70 ± 15	4/6	78 ± 15	4/6	50 ± 6	0/6	50 ± 6	0/6	no effect	did not stimulate ex novo synthesis of S100β protein	
Nc1nc2c(ncn2[C@@H]2O[C@H](CO)[C@@H](O)[C@H]2O)c(=O)[nH]1 [guanosine]																				increased the amount of NGF-like immunoreactivity
